Drawing on patent US10519177B2, “Heterocyclic compounds and uses thereof” (Plexxikon Inc., priority 2013, dated 2019), this text covers IC50 for 25 molecules.

In assay [1] the target is BRD4-BD12 (1-477) (Homo sapiens (Human), UniProt O60885). Put plainly: Alphascreen binding assay BRD4-BD12. The settings on record: BRD4(1 2) H4; read-out: Biochemical activity (IC50 μM) BRD4(1 2) H4. The method in brief:
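First, compound was preincubated 1 h at room temperature with the His-tagged BRD4 protein (BD1 44-164 or tandem BD12 1-477) and acetylated H4 peptide. Next, donor and acceptor beads were added at 7.5 μg/ml final. After 30 min, AlphaScreen emission was recorded.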

Assay [2] relates to MV-4-11 cells. Description: Oncology cell growth assay MV-4-11 (CellTiter Glo). Type of assay: cell-based. The settings on record: Homo sapiens, MV4-11, 72 h; MV-4-11, 3d growth; read-out: Cell activity (IC50 μM) MV-4-11 3d-Growth. The method in brief:
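MV-4-11 AML cells (MLL-AF4), 3000 per well, exposed to 8-point 1:3 compound titration from 10 μM top concentration (0.2% DMSO) for 72 h. Viability by CellTiter Glo luminescence, normalized to DMSO controls; pIC50 from four-parameter curve fit.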
In general terms: Cellular ATP, detected with luciferase, serves as a proxy for viable cell number.

The test system of assay [3] is bromodomain. Put plainly: at least one of the bromodomain cell assays of Example 57. The settings on record: at least one of the bromodomain cell assays described in Example 57; read-out: IC50 in at least one of the bromodomain cell assays. Type of assay: cell-based.

SMILES strings stand for the structures. Bounds are passed on as bounds.

`Cc1noc(C)c1-c1cnc2c(I)cn(CC3CCCC3)c2c1` [P-0549]: the values for the IC50 in assay [1], in assay [2] and in assay [3] were less than 1 µM, less than 1 µM and less than 10000 nM, respectively.

As to `COC(=O)c1ccc(-c2cn(CC3CCCC3)c3cc(-c4c(C)noc4C)cnc23)cc1` [P-0550, methyl 4-[1-(cyclopentylmethyl)-6-(3,5-dimethylisoxazol-4-yl)pyrrolo[3,2-b]pyridin-3-yl]benzoate], the IC50 is less than 1 µM in assay [1], 1 to 10 µM in assay [2] and less than 10000 nM in assay [3].

For `Cc1noc(C)c1-c1cnc2c(-c3cnn(CC(F)(F)F)c3)cn(CC3CCCC3)c2c1` [P-0551, 4-[1-(cyclopentylmethyl)-3-[1-(2,2,2-trifluoroethyl)pyrazol-4-yl]pyrrolo[3,2-b]pyridin-6-yl]-3,5-dimethyl-isoxazole], the figures for the IC50 in assay [1], in assay [2] and in assay [3] were less than 1 µM, less than 1 µM and less than 10000 nM, respectively.

For the molecule `Cc1noc(C)c1-c1cnc2c(-c3ccc(C(=O)O)cc3)cn(CC3CCCC3)c2c1` [P-0552, 4-[1-(cyclopentylmethyl)-6-(3,5-dimethylisoxazol-4-yl)pyrrolo[3,2-b]pyridin-3-yl]benzoic acid], the figures for the IC50 in assay [1], in assay [2] and in assay [3] were less than 1 µM, less than 1 µM and less than 10000 nM, respectively.

For the molecule `Cc1noc(C)c1-c1cnc2c(-c3cnn(CC(F)(F)F)c3)cn(CC3CCCCC3)c2c1` [P-0553, 4-[1-(cyclohexylmethyl)-3-[1-(2,2,2-trifluoroethyl)pyrazol-4-yl]pyrrolo[3,2-b]pyridin-6-yl]-3,5-dimethyl-isoxazole], the IC50 in assay [1] is less than 1 µM; in assay [2] it was less than 1 µM; in assay [3], less than 10000 nM.

Take `Cc1noc(C)c1-c1cnc2c(-c3ccc(C(=O)O)cc3)cn(CC3CCCCC3)c2c1` [P-0554, 4-[1-(cyclohexylmethyl)-6-(3,5-dimethylisoxazol-4-yl)pyrrolo[3,2-b]pyridin-3-yl]benzoic acid]: the results for the IC50 in assay [1], in assay [2] and in assay [3] were less than 1 µM, less than 1 µM and less than 10000 nM, respectively.

Turning to `CNS(=O)(=O)c1ccc(-c2cn([C@@H](C)c3ccccn3)c3cc(-c4c(C)noc4C)cnc23)cc1` [P-0555, 4-[6-(3,5-dimethylisoxazol-4-yl)-1-[(1S)-1-(2-pyridyl)ethyl]pyrrolo[3,2-b]pyridin-3-yl]-N-methyl-benzenesulfonamide], the results for the IC50 in assay [1], in assay [2] and in assay [3] were less than 1 µM, less than 1 µM and less than 10000 nM, respectively.

As for `CCNS(=O)(=O)c1ccc(-c2cn([C@@H](C)c3ccccn3)c3cc(-c4c(C)noc4C)cnc23)cc1` [P-0556, 4-[6-(3,5-dimethylisoxazol-4-yl)-1-[(1S)-1-(2-pyridyl)ethyl]pyrrolo[3,2-b]pyridin-3-yl]-N-ethyl-benzenesulfonamide], the IC50 in assay [1] is less than 1 µM; in assay [2], less than 1 µM; in assay [3], less than 10000 nM.

Turning to `Cc1noc(C)c1-c1cnc2c(-c3ccc(S(=O)(=O)NC4CC4)cc3)cn([C@@H](C)c3ccccn3)c2c1` [P-0557, N-cyclopropyl-4-[6-(3,5-dimethylisoxazol-4-yl)-1-[(1S)-1-(2-pyridyl)ethyl]pyrrolo[3,2-b]pyridin-3-yl]benzenesulfonamide], the values for the IC50 in assay [1], in assay [2] and in assay [3] were less than 1 µM, less than 1 µM and less than 10000 nM, respectively.

As to `Cc1noc(C)c1-c1cnc2c(-c3ccc(CC(=O)O)cc3)cn([C@@H](C)c3ccccn3)c2c1` [P-0558, 2-[4-[6-(3,5-dimethylisoxazol-4-yl)-1-[(1S)-1-(2-pyridyl)ethyl]pyrrolo[3,2-b]pyridin-3-yl]phenyl]acetic acid], the IC50 in assay [1] is less than 1 µM; in assay [2] it was less than 1 µM; in assay [3], less than 10000 nM.

For the molecule `COC(=O)c1ccc(-c2cn([C@@H](C)c3ccccc3)c3cc(-c4c(C)noc4C)cnc23)cc1` [P-0559, methyl 4-[6-(3,5-dimethylisoxazol-4-yl)-1-[(1S)-1-phenylethyl]pyrrolo[3,2-b]pyridin-3-yl]benzoate], the values for the IC50 in assay [1], in assay [2] and in assay [3] were less than 1 µM, less than 1 µM and less than 10000 nM, respectively.

Consider `Cc1noc(C)c1-c1cnc2c(-c3ccc(C(=O)O)cc3)cn([C@@H](C)c3ccccc3)c2c1` [P-0560, 4-[6-(3,5-dimethylisoxazol-4-yl)-1-[(1S)-1-phenylethyl]pyrrolo[3,2-b]pyridin-3-yl]benzoic acid], for which the IC50 in assay [1] is less than 1 µM; in assay [2] it was less than 1 µM; in assay [3], less than 10000 nM.

In the case of `CNC(=O)Nc1ccc(-c2cn(CC3CCC(F)(F)CC3)c3cc(-c4c(C)noc4C)cnc23)cc1` [P-0561, 1-[4-[1-[(4,4-difluorocyclohexyl)methyl]-6-(3,5-dimethylisoxazol-4-yl)pyrrolo[3,2-b]pyridin-3-yl]phenyl]-3-methyl-urea], the IC50 in assay [1] was less than 1 µM; in assay [2], less than 1 µM; in assay [3], less than 10000 nM.

Consider `Cc1noc(C)c1-c1cnc2c(-c3ccc(NC(=O)NC4CC4)cc3)cn(CC3CCC(F)(F)CC3)c2c1` [P-0562, 1-cyclopropyl-3-[4-[1-[(4,4-difluorocyclohexyl)methyl]-6-(3,5-dimethylisoxazol-4-yl)pyrrolo[3,2-b]pyridin-3-yl]phenyl]urea], for which the IC50 in assay [1] was less than 1 µM; in assay [2], less than 1 µM; in assay [3] it was less than 10000 nM.

Turning to `CNC(=O)Nc1ccc(-c2cn([C@@H](C)c3ccccn3)c3cc(-c4c(C)noc4C)cnc23)cc1` [P-0563, 1-[4-[6-(3,5-dimethylisoxazol-4-yl)-1-[(1S)-1-(2-pyridyl)ethyl]pyrrolo[3,2-b]pyridin-3-yl]phenyl]-3-methyl-urea], the IC50 in assay [1] was less than 1 µM; in assay [2], less than 1 µM; in assay [3], less than 10000 nM.

On to `Cc1noc(C)c1-c1cnc2c(-c3ccc(NC(=O)NC4CC4)cc3)cn([C@@H](C)c3ccccn3)c2c1` [P-0564, 1-cyclopropyl-3-[4-[6-(3,5-dimethylisoxazol-4-yl)-1-[(1S)-1-(2-pyridyl)ethyl]pyrrolo[3,2-b]pyridin-3-yl]phenyl]urea], for which the results for the IC50 in assay [1], in assay [2] and in assay [3] were less than 1 µM, less than 1 µM and less than 10000 nM, respectively.

Turning to `COC(=O)Cc1ccc(-c2cn([C@@H](C)c3ccccn3)c3cc(-c4c(C)noc4C)cnc23)cc1` [P-0565, methyl 2-[4-[6-(3,5-dimethylisoxazol-4-yl)-1-[(1S)-1-(2-pyridyl)ethyl]pyrrolo[3,2-b]pyridin-3-yl]phenyl]acetate], the IC50 in assay [1] was less than 1 µM; in assay [2] it was less than 1 µM; in assay [3] it was less than 10000 nM.

Regarding `Cc1noc(C)c1-c1cnc2c(-c3ccc(C(F)(F)C(=O)O)cc3)cn([C@@H](C)c3ccccn3)c2c1` [P-0566, 2,2-difluoro-2-(4-(6-(3,5-dimethylisoxazol-4-yl)-1-((S)-1-(pyridin-2-yl)ethyl)-1H-pyrrolo[3,2-b]pyridin-3-yl)phenyl)acetic acid], the concentration for half-maximal inhibition (IC50) in assay [1] was less than 1 µM; in assay [2], 1 to 10 µM; in assay [3], less than 10000 nM.

For the molecule `CC[C@@H](c1ccccc1)n1cc(-c2ccc(C(=O)O)cc2)c2ncc(-c3c(C)noc3C)cc21` [P-0567, 4-[6-(3,5-dimethylisoxazol-4-yl)-1-[(1S)-1-phenylpropyl]pyrrolo[3,2-b]pyridin-3-yl]benzoic acid], the values for the IC50 in assay [1], in assay [2] and in assay [3] were less than 1 µM, less than 1 µM and less than 10000 nM, respectively.

Take `Cc1noc(C)c1-c1cnc2c(-c3ccc(-c4nnn[nH]4)cc3)cn([C@@H](C)c3ccccn3)c2c1` [P-0568, 3,5-dimethyl-4-[1-[(1S)-1-(2-pyridyl)ethyl]-3-[4-(1H-tetrazol-5-yl)phenyl]pyrrolo[3,2-b]pyridin-6-yl]isoxazole]: the IC50 was less than 1 µM in assay [1], less than 1 µM in assay [2] and less than 10000 nM in assay [3].

Regarding `CC[C@H](c1ccccc1)n1cc(-c2ccc(C(=O)OC)cc2)c2ncc(-c3c(C)noc3C)cc21` [P-0569, methyl 4-[6-(3,5-dimethylisoxazol-4-yl)-1-[(1R)-1-phenylpropyl]pyrrolo[3,2-b]pyridin-3-yl]benzoate], the IC50 was less than 1 µM in assay [1], less than 1 µM in assay [2] and less than 10000 nM in assay [3].

For `CC[C@H](c1ccccc1)n1cc(-c2ccc(C(=O)O)cc2)c2ncc(-c3c(C)noc3C)cc21` [P-0570, 4-[6-(3,5-dimethylisoxazol-4-yl)-1-[(1R)-1-phenylpropyl]pyrrolo[3,2-b]pyridin-3-yl]benzoic acid], the results for the IC50 in assay [1], in assay [2] and in assay [3] were less than 1 µM, less than 1 µM and less than 10000 nM, respectively.

As for `[2H]C([2H])(O)c1ccc(-c2cn(CC3CCC(F)(F)CC3)c3cc(-c4c(C)noc4C)cnc23)cc1` [P-0571, dideutrio-[4-[1-[(4,4-difluorocyclohexyl)methyl]-6-(3,5-dimethylisoxazol-4-yl)pyrrolo[3,2-b]pyridin-3-yl]phenyl]methanol], the IC50 was less than 1 µM in assay [1], less than 1 µM in assay [2] and less than 10000 nM in assay [3].

For `Cc1noc(C)c1-c1cnc2c(I)cn([C@@H](C)c3ccccn3)c2c1` [P-0572, 4-[3-iodo-1-[(1S)-1-(2-pyridyl)ethyl]pyrrolo[3,2-b]pyridin-6-yl]-3,5-dimethyl-isoxazole], the results for the IC50 in assay [1], in assay [2] and in assay [3] were less than 1 µM, less than 1 µM and less than 10000 nM, respectively.

As to `Cc1noc(C)c1-c1cnc2c(-c3ccc(C#N)cc3)cn([C@@H](C)c3ccccn3)c2c1` [P-0573, 4-[6-(3,5-dimethylisoxazol-4-yl)-1-[(1S)-1-(2-pyridyl)ethyl]pyrrolo[3,2-b]pyridin-3-yl]benzonitrile], the IC50 in assay [1] is less than 1 µM; in assay [2] it was less than 1 µM; in assay [3] it was less than 10000 nM.

By IC50 is commonly meant the concentration that inhibits the measured activity by half.
